{
  "source": "patent US20140296146A1",
  "about": "“Thermostable Inhibitors of Activation of the Blood Clotting System Through Contact with Foreign Surfaces” (Synapse B.V., priority 2011, published 2014)",
  "molecules": {"B1": {"name": "Corn trypsin inhibitor (other, UniProt P01088 29-138, looked up)", "chain": "SAGTSCVPGWAIPHNPLPSCRWYVTSRTCGIGPRLPWPELKRRCCRELADIPAYCRCTALSILMDGAIPPGPDAQLEGRLEDLPGCPREVQRGFAATLVTEAECNLATIS", "notes": "also called CTI"}},
  "key": {"h-FXIIa": {"biological_target": "T1, h-FXIIa (Homo sapiens, UniProt P00748)", "T1 construct": "purchased Enzyme Research Laboratories FXIIa 1212A", "T1 sequence (P00748 373-615 limits assumed)": "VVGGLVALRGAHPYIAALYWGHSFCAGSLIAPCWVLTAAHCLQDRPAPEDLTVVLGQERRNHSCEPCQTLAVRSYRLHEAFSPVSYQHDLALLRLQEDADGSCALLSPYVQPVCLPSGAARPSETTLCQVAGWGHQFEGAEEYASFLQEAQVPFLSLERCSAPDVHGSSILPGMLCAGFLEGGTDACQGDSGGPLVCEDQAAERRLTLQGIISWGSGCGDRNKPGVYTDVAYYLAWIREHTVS", "T1 sequence (P00748 20-372 partner limits assumed)": "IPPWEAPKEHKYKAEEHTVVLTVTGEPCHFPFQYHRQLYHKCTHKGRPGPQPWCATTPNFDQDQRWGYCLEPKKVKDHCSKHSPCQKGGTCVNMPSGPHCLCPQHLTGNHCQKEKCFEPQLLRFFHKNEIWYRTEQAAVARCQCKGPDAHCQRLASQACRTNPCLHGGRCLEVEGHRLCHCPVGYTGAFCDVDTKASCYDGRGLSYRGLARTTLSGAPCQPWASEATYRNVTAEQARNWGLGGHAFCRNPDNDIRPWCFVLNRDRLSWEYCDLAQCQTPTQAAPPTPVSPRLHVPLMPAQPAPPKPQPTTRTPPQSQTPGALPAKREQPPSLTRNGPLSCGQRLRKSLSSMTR", "assay": "Effect of inhibitors on hydrolysis of S2302 by h-FXIIa", "type": "biochemical", "experimental": "Materials • S2302 From Chromogenic, lot # N0398718 SEQ0860, exp. date 2012-07. Water added on 7 Oct. […] On 3 Aug. […] Product code FXIIa 1212A, lot #FXIIa 2520PL. Bottle with 0.5 mg was reconstituted with 370 μl pure water. […] Buffer 4 mM NaAc, 150 mM NaCl (pH 5.3). Preparation was divided into 20 μl amounts and frozen at −80° C. • Hepes735 140 mM NaCl, 20 mM Hepes, 0.02% NaN3 (pH 7.35). • BSA5 Hepes735+5 mg/ml BSA. • CTI Prepared on 17 Dec. 2004, 0.141 mg/ml, i.e. 0.141/12028=11.7*10^−6 M (11.7 μM). One portion was thawed and divided into 3 parts. Part 1 was frozen at −80° C.; part 2 was kept at RT; and part 3 was incubated 30 min at 95° C. and then kept at RT.\nStock FXIIa was diluted 700× in BSA5. The inhibitor was diluted in BSA5 as indicated. Wells contained 70 μl diluted FXIIa (5 nM final), 70 μl inhibitor and 20 μl S2302 (475 or 462.5 μM final). The reaction was started after 5 min heating on the heating plate with S2302. Filters 405 nm and 490 nm reference. Found mΔA/min was multiplied by 2.14 to get the figure for a 1 cm path.\nThe residual activity (V) was fitted against the PTI concentration with equation:\nV=(E+(sqrt(Ê2+2*E*(Ki−I)+Î2+2*I*Ki+Kî2)−E−I−Ki)/2)*kcat*S/(Km+S)\nin which E=[FXIIa], Ki is the dissociation constant, I=[Inhibitor], kcat and Km are Michaelis constants and S=[S2302]."}, "contact activation [1]": {"test_system": "contact activation", "assay": "CAT assay at 0 pM TF on PPP from blood collection tubes with TICA added to tube or to assay", "type": "biochemical, human", "experimental": "In 12 donors blood was drawn with 7 different drawing tubes with and without addition of TICA1 in the drawing tubes (total 14 tubes; 78 ml). After preparing PPP from these tubes, CAT measurements with MP reagent and pplow reagent was performed. One donor is measured in one plate. (pplow duplicate; MP duplicate; calibrator in 4 fold. Total volume is 320 μl sample/measurement in total 88 wells/donor.\nIn 12 donors blood is taken with the following commercial available drawing tubes: (From all blooddrawing tubes one tube with and one tube without TICA will be used to draw blood)\nFinal TICA concentration after blood drawing in every tube with added TICA is 30 μg/ml whole blood.\nFinal TICA concentration in plasma after preparing PPP is 60 μg/ml (assuming an hematocit of 50%)\nCAT measurements with MP reagent and pplow reagent will be performed. One donor is measured in one plate. PPLow duplicate; MP duplicate; calibrator in 4 fold.\nTotal volume is 320 μl sample/measurement in total 88 wells/donor. NP2012 is also included in the measurement in 4 fold.\nLag times, Endogenous thrombin potentials, and peak height were recorded, For the current conditions of thrombin generation, peak height is the preferred parameter for interpretation of the results.\nPlasma with TICA added: concentration in plasma: 60 μg/ml\nStock TICA: 1.5 mg/ml=>1500 μg/ml\n20 μl TICA (stock: 1500 μg/ml) is added to 480 μl plasma."}, "contact activation [2]": {"test_system": "contact activation", "assay": "Clotting time of blood taken on inhibitor only, without Ca2+ binding substance", "details": "tube heated for one hour in boiling water; 10 μg/ml", "experimental": "Indeed STI inhibited contact activation so well that blood taken on a solution not containing sodium citrate or another substance that binds Ca^2+ ions but only STI (10 μg/ml) remained fluid for over 45 minutes, under conditions where in absence of STI it would clot in less than 5 min. […] CTI under similar circumstances, at 10 μg/ml, lost much of its activity because a clotting time of <15 min. was observed."}, "[3]": {"details": "TICA added to CAT assay, 60 μg/ml in plasma"}, "[4]": {"details": "TICA added to Tube, 30 μg/ml whole blood"}},
  "data": [
    {"molecule": "CC[C@H](C)[C@@H]1NC(=O)[C@H](CCCNC(=N)N)NC(=O)[C@@H]2CCCN2C(=O)[C@@H](NC(=O)[C@@H](NC(=O)[C@@H](N)CCCNC(=N)N)C(C)C)CSSC[C@@H]2NC(=O)[C@H](CCC(=O)O)NC(=O)[C@H](C)NC(=O)[C@H](CC(C)C)NC(=O)[C@@H]3CSSC[C@@H](C(=O)NCC(=O)O)NC(=O)[C@H](Cc4ccc(O)cc4)NC(=O)CNC(=O)[C@H](Cc4c[nH]cn4)NC(=O)[C@H](CCC(=O)O)NC(=O)[C@H](CC(C)C)NC(=O)[C@H](CSSC[C@H](NC(=O)[C@H](CCCCN)NC(=O)[C@H](CCSC)NC(=O)[C@H](CC(C)C)NC1=O)C(=O)N[C@@H](CCCCN)C(=O)N[C@@H](CCCCN)C(=O)N[C@@H](CC(=O)O)C(=O)N[C@@H](CO)C(=O)N[C@@H](CC(=O)O)C(=O)N3)NC(=O)[C@H](C(C)C)NC2=O", "note": "[TICA1]", "values": [
      {"measurement": "Ki", "setting": "h-FXIIa; Ki, Table 2, inhibitory activity of different polypeptides", "value": 25.5, "unit": "nM"},
      {"measurement": "Ki", "setting": "h-FXIIa; ki F.XIIa (ng/ml), After heating", "value": 26, "unit": "nM"},
      {"measurement": "Ki", "setting": "h-FXIIa; ki F.XIIa (ng/ml), Before heating", "value": 25.4, "unit": "nM"},
      {"measurement": "BD Glass 0 pM TF ETP (nM IIa · min)", "setting": "contact activation [1]; [3]", "value": "760 ± 526", "unit": "nM IIa · min"},
      {"measurement": "BD Glass 0 pM TF Lagtime (min)", "setting": "contact activation [1]; [3]", "value": "38.8 ± 34.8", "unit": "min"},
      {"measurement": "BD Glass 0 pM TF Peak Height (nM IIa)", "setting": "contact activation [1]; [3]", "value": "105 ± 81", "unit": "nM IIa"},
      {"measurement": "BD Plastic 0 pM TF ETP (nM IIa · min)", "setting": "contact activation [1]; [3]", "value": "614 ± 538", "unit": "nM IIa · min"},
      {"measurement": "BD Plastic 0 pM TF Lagtime (min)", "setting": "contact activation [1]; [3]", "value": "49.5 ± 37.7", "unit": "min"},
      {"measurement": "BD Plastic 0 pM TF Peak Height (nM IIa)", "setting": "contact activation [1]; [3]", "value": "86 ± 87", "unit": "nM IIa"},
      {"measurement": "Greiner 0 pM TF ETP (nM IIa · min)", "setting": "contact activation [1]; [3]", "value": "834 ± 449", "unit": "nM IIa · min"},
      {"measurement": "Greiner 0 pM TF Lagtime (min)", "setting": "contact activation [1]; [3]", "value": "31.2 ± 26.7", "unit": "min"},
      {"measurement": "Greiner 0 pM TF Peak Height (nM IIa)", "setting": "contact activation [1]; [3]", "value": "110 ± 70", "unit": "nM IIa"},
      {"measurement": "Heamtech 0 pM TF ETP (nM IIa · min)", "setting": "contact activation [1]; [3]", "value": "666 ± 552", "unit": "nM IIa · min"},
      {"measurement": "Heamtech 0 pM TF Lagtime (min)", "setting": "contact activation [1]; [3]", "value": "46.4 ± 39.7", "unit": "min"},
      {"measurement": "Heamtech 0 pM TF Peak Height (nM IIa)", "setting": "contact activation [1]; [3]", "value": "93 ± 85", "unit": "nM IIa"},
      {"measurement": "Sarstedt 0 pM TF ETP (nM IIa · min)", "setting": "contact activation [1]; [3]", "value": "279 ± 227", "unit": "nM IIa · min"},
      {"measurement": "Sarstedt 0 pM TF Lagtime (min)", "setting": "contact activation [1]; [3]", "value": "50.0 ± 38.0", "unit": "min"},
      {"measurement": "Sarstedt 0 pM TF Peak Height (nM IIa)", "setting": "contact activation [1]; [3]", "value": "26 ± 23", "unit": "nM IIa"},
      {"measurement": "Terumo 0 pM TF ETP (nM IIa · min)", "setting": "contact activation [1]; [3]", "value": "276 ± 367", "unit": "nM IIa · min"},
      {"measurement": "Terumo 0 pM TF Lagtime (min)", "setting": "contact activation [1]; [3]", "value": "64 ± 40.6", "unit": "min"},
      {"measurement": "Terumo 0 pM TF Peak Height (nM IIa)", "setting": "contact activation [1]; [3]", "value": "33 ± 50", "unit": "nM IIa"},
      {"measurement": "BD Glass 0 pM TF ETP (nM IIa · min)", "setting": "contact activation [1]; [4]", "value": "77 ± 119", "unit": "nM IIa · min"},
      {"measurement": "BD Glass 0 pM TF Lagtime (min)", "setting": "contact activation [1]; [4]", "value": "76.6 ± 34.0", "unit": "min"},
      {"measurement": "BD Glass 0 pM TF Peak Height (nM IIa)", "setting": "contact activation [1]; [4]", "value": "6 ± 9", "unit": "nM IIa"},
      {"measurement": "BD Plastic 0 pM TF ETP (nM IIa · min)", "setting": "contact activation [1]; [4]", "value": "20 ± 61", "unit": "nM IIa · min"},
      {"measurement": "BD Plastic 0 pM TF Lagtime (min)", "setting": "contact activation [1]; [4]", "value": "90.1 ± 26.8", "unit": "min"},
      {"measurement": "BD Plastic 0 pM TF Peak Height (nM IIa)", "setting": "contact activation [1]; [4]", "value": "2 ± 6", "unit": "nM IIa"},
      {"measurement": "Greiner 0 pM TF ETP (nM IIa · min)", "setting": "contact activation [1]; [4]", "value": "144 ± 164", "unit": "nM IIa · min"},
      {"measurement": "Greiner 0 pM TF Lagtime (min)", "setting": "contact activation [1]; [4]", "value": "65.0 ± 34.8", "unit": "min"},
      {"measurement": "Greiner 0 pM TF Peak Height (nM IIa)", "setting": "contact activation [1]; [4]", "value": "11 ± 13", "unit": "nM IIa"},
      {"measurement": "Heamtech 0 pM TF ETP (nM IIa · min)", "setting": "contact activation [1]; [4]", "value": "289 ± 420", "unit": "nM IIa · min"},
      {"measurement": "Heamtech 0 pM TF Lagtime (min)", "setting": "contact activation [1]; [4]", "value": "65.0 ± 34.8", "unit": "min"},
      {"measurement": "Heamtech 0 pM TF Peak Height (nM IIa)", "setting": "contact activation [1]; [4]", "value": "36 ± 62", "unit": "nM IIa"},
      {"measurement": "Sarstedt 0 pM TF ETP (nM IIa · min)", "setting": "contact activation [1]; [4]", "value": "140 ± 106", "unit": "nM IIa · min"},
      {"measurement": "Sarstedt 0 pM TF Lagtime (min)", "setting": "contact activation [1]; [4]", "value": "52.5 ± 36.2", "unit": "min"},
      {"measurement": "Sarstedt 0 pM TF Peak Height (nM IIa)", "setting": "contact activation [1]; [4]", "value": "10 ± 8", "unit": "nM IIa"},
      {"measurement": "Terumo 0 pM TF ETP (nM IIa · min)", "setting": "contact activation [1]; [4]", "value": "59 ± 119", "unit": "nM IIa · min"},
      {"measurement": "Terumo 0 pM TF Lagtime (min)", "setting": "contact activation [1]; [4]", "value": "75.7 ± 35.6", "unit": "min"},
      {"measurement": "Terumo 0 pM TF Peak Height (nM IIa)", "setting": "contact activation [1]; [4]", "value": "5 ± 11", "unit": "nM IIa"}
    ]},
    {"molecule": "B1", "values": [
      {"measurement": "clotting time of blood after sterilization of the tube containing inhibitor", "setting": "contact activation [2]", "value": "< 15", "unit": "min"}
    ]}
  ]
}
